# Measurements taken from patent US5714494A, “Xanthines in the 7th position with a benzyl acetic acid moiety” (Bayer Aktiengesellschaft, priority 1995, dated 1998).
# pIC50: −log10 of the molar value.
# Tests used:
# [1] = tested on: ApoB-100-associated lipoproteins; test: Inhibition of the release of ApoB-100-associated lipoproteins from HepG2 cells (immunoassay for human LDL); assay type: cell-based; details: light absorption 450 nm vs solvent control
# Description: The test for detecting inhibition of the release of ApoB-100-associated lipoproteins from liver cells was carried out in vitro using cultured liver cells, preferably using cells of the human line HepG2. These cells are grown under standard conditions in medium for the culture of eucaryotic cells, preferably in RPMI 1640 using 10% foetal calf serum. HepG2 cells synthesize and secrete into the culture supernatant ApoB-100-associated lipoprotein particles which in principle are synthesized in a similar manner to the VLDL and LDL particles which are to be found in the plasma.
# These particles can be detected using an immunoassay for human LDL. This immunoassay is carried out using antibodies which have been induced in the rabbit against human LDL under standard conditions. The anti-LDL antibodies (rabbit anti-LDL-Ab) were purified by affinity chromatography on an immunosorbent using human LDL. These purified rabbit anti-LDL Ab are adsorbed on the surface of plastic. Expediently, this adsorption is carried out on the plastic surface of microtitre plates having 96 wells, preferably on MaxiSorp plates. If ApoB-100-associated particles are present in the supernatant of Hep-G2 cells, these can bind to the insolubilized rabbit anti-LDL Ab, and an immune complex is formed which is bound to the plastic surface. Unbound proteins are removed by washing. The immune complex located on the plastic surface is detected using monoclonal antibodies which have been induced against human LDL according to standard conditions and purified. These antibodies were conjugated with the enzyme peroxidase. Peroxidase converts the colourless substrate TMB into a coloured product in the presence of H2 O2. After acidification of the reaction mixture using H2 SO4, the specific light absorption at 450 mn is determined, which is a measure of the amount of ApoB-100-associated particles which have been secreted into the culture supernatant by the HepG2 cells.
# The IC50 value indicates at which substance concentration the light absorption is inhibited by 50% in comparison with the control (solvent control without substance).
# [2] = tested on: intestinal triglyceride absorption; test: Inhibition of intestinal triglyceride absorption in vivo (rats); parameters: species or system male Wistar rats; details: po; for Absorption ED50 or % inhibition: 2 h; for ED50: Rattus norvegicus, serum triglyceride increase 2 h after triglyceride loading, fasting rats, read-out: Absorption ED50 or % inhibition
# Description: The substances which are to be investigated for their triglyceride absorption-inhibiting action in vivo are administered orally to male Wistar rats having a body weight of between 170 and 230 g. For this purpose, the animals are divided into groups of 6 animals 18 hours before administration of the substance and the feed is then withdrawn from them. Drinking water is available to the animals ad libitum. The animals of the control groups receive an aqueous tragacanth suspension or a tragacanth suspension which contains olive oil. The tragacanth-olive oil suspension is prepared using an Ultra-Turrax. The substances to be investigated are suspended directly before substance administration in a corresponding tragacanth-olive oil suspension, also using an Ultra-Turrax.
# Before stomach tube application, blood is taken from each rat by puncture of the retroorbital venous plexus to determine the basal serum triglyceride content. The tragacanth suspension, the tragacanth-olive oil suspensions without substance (control animals) and the substances suspended in a corresponding tragacanth-olive oil suspension are then administered to the fasting animals using a stomach tube. Further taking of blood for the determination of the postprandial serum triglyceride rise is carried out, as a rule, 1,2 and 3 hours after stomach tube application.
# The blood samples are centrifuged and, after recovering the serum, the triglycerides are determined photometrically using an EPOS analyzer 5060 (Eppendorf Geratebau, Netheler & Hinz GmbH, Hamburg). The triglycerides are determined by fully enzymatic means using a commercially available UV test.
# The postprandial serum triglyceride increase is determined by subtraction of the triglyceride preliminary value of each animal from its corresponding postprandial triglyceride concentrations (1,2 and 3 hours after administration).
# The differences (in mmol/l) at each time 1, 2 and 3 hours) are averaged in the groups, and the average values of the serum triglyceride increase (ΔTG) of the substance-treated animals are compared with the animals which only received the tragacanth-oil suspension.
# Likewise, the serum triglyceride course of the control animals which received only tragacanth is calculated. The substance effect at each time (1, 2 or 3 hours) is determined as follows and given in Δ% of the oil-loaded control. [formula]
# Effect of 10 mg of test substance/kg of body weight p.o. on the triglyceride increase (Δ%) 2 h after a triglyceride loading in the serum of fasting rats. The serum triglyceride increase of fat-loaded control animals based on the serum triglyceride level of tragacanth control animals corresponds to 100%. n=6 animals per group.
# Statistical assessment was carried out using student3 s t test after prior checking of the variances for homogeneity.
# [3] = tested on: VLDL secretion; test: Inhibition of VLDL secretion in vivo (rat) (Triton rat); details: for inhibition in vivo at 3 mg/kg: (n.s.) for 112, 114, 117, 154, 175, 176, 227, read-out: Triton rat % TG inhibition (p.o.) 2 h after substance
# Description: The action of the test substances on VLDL secretion is also investigated in the rat. To do this, 500 mg/kg of body weight (2.5 ml/kg) of Triton WR-1339, dissolved in physiological saline solution, are administered to rats intravenously in the tail vein. Triton WR-1339 inhibits lipoprotein lipase and thus leads through inhibition of VLDL catabolism to an increase in the triglyceride and cholesterol level. These increases can be used as a measure of the VLDL secretion rate.
# Blood is taken from the animals before and one and two hours after administration of the detergent by puncture of the retroorbital venous plexus. The blood is incubated at room temperature for 1 h for clotting and the serum is recovered by centrifugation at 10,000 g for 20 s. The triglycerides are then determined photometrically at a wavelength of 540 nm by means of a commercially available coupled enzyme test (Sigma Diagnostics®, No. 339). Measurement is carried out with the aid of a likewise coupled enzyme test (Boehringer Mannheim®, No. 1442350) at a wavelength of 546 nm. Samples with triglyceride or cholesterol concentrations which exceed the measuring range of the methods are diluted with physiological saline solution. The respective serum concentrations are determined with the aid of standard series measured in parallel. Test substances are administered orally, intravenously or subcutaneously immediately after the Triton injection.
# [4] = tested on: VLDL secretion; test: Determination of VLDL secretion in vivo in the hamster (Triton hamster); parameters: species or system golden hamster; details: 6 mg/kg i.v.
# Description: The effects of the test substances on VLDL secretion in vivo is investigated in the hamster. To do this, golden hamsters are anaesthetized with Ketavet (83 mg/kg s.c.) and Nembutal (50 mg/kg i.p.) after premedication with atropine ([…] s.c.). When the animals have become reflex-free, the jugular vein is exposed and cannulated. 0.25 ml/kg of a 20% strength solution of Triton WR 1339 in physiological saline solution is then administered. This detergent inhibits the lipoprotein lipase and thus leads to an increase in the triglyceride level as a result of lack of catabolism of secreted VLDL particles. This triglyceride increase can be used as a measure of the VLDL secretion rate. Blood is taken from the animals before and one and two hours after administration of the detergent by puncture of the retroorbital venous plexus. The blood is incubated for two hours at room temperature, then overnight at 4° C. in order to finish clotting completely. […] The triglyceride concentration in the serum thus obtained is determined with the aid of a modified commercially available enzyme test (Merckotest® triglyceride No. 14354). […] The optical density is then determined at a wavelength of 492 nm in an automatic plate-reading apparatus (SLT spectra). […] The triglyceride concentration contained in the samples is determined with the aid of a standard curve measured in parallel. […]
# [5] = Homo sapiens, HepG2, HepG2 cells
# [6] = Rattus norvegicus, po, 2 h, 3 mg/kg p.o.
Compound,"pIC50 [1, 5]",Absorption ED50 or % inhibition [2] [mg/kg],"inhibition in vivo at 3 mg/kg [3, 6] [%]",pIC50 ([1]; HepG2 cells),ED50 [2] [mg/kg],other results
Cn1c(=O)c2c(nc(-c3ccsc3)n2Cc2ccc(C(C(=O)N[C@@H](CO)c3ccccc3)C3CCCC3)cc2)n(C)c1=O (stereo partly shown) [Example 154],8.52,< 2,-4,,,
"Cn1c(=O)c2c(nc(-c3ccccc3)n2Cc2ccc(C(C(=O)N[C@@H](CO)c3ccccc3)C3CCCC3)cc2)n(C)c1=O (single isomer, unassigned) [Example 130]",,,,7.60,5,"inhibition in vivo at 20 mg/kg ([3]; Rattus norvegicus, po, 2 h, 20 mg/kg p.o., read-out: Triton rat % TG inhibition (p.o.) 2 h after substance): 36%"
"Cn1c(=O)c2c(nc(Br)n2Cc2ccc(C(C(=O)N[C@@H](CO)c3ccccc3)C3CCCC3)cc2)n(C)c1=O (single isomer, unassigned) [Example 117]",,,25,8.52,3,
Cn1c(=O)c2c(nc(-c3cccs3)n2Cc2ccc(C(C(=O)N[C@@H](CO)c3ccccc3)C3CCCC3)cc2)n(C)c1=O (stereo partly shown) [Example 157],8.10,> 2,11.3,,,
Cn1c(=O)c2c(nc(-c3ccccc3)n2Cc2ccc(C(C(=O)N[C@@H](CO)c3ccccc3)C3CCCC3)cc2)n(C)c1=O (stereo partly shown) [Example 129],7.47,,,,20,Triton hamster % CH inhibition 2 h after substance ([4]; cholesterol): 25%; Triton hamster % TG inhibition 2 h after substance ([4]; triglycerides): 25%
"Cn1c(=O)c2c(ncn2Cc2ccc(C(C(=O)N[C@@H](CO)c3ccccc3)C3CCCC3)cc2)n(C)c1=O (single isomer, unassigned) [Example 114]",,,14.1,7.41,< 2,
"Cn1c(=O)c2c(nc(CCc3ccccc3)n2Cc2ccc(C(C(=O)N[C@@H](CO)c3ccccc3)C3CCCC3)cc2)n(C)c1=O (stereo partly drawn) [Example 227, 2-(R&S)-Cyclopentyl-2-[4-(1,3-dimethyl-2,6-dioxo-8-(2-phenyl-ethyl)-1,2,3,6-tetra-hydro-purin-7-yl-methyl)phenyl]acet-N-[1-(R)-1-phenyl-2-hydroxy-ethyl)amide]",7.40,> 6,-8,,,
"Cn1c(=O)c2c(nc(Cc3ccccc3)n2Cc2ccc(C(C(=O)N[C@@H](CO)c3ccccc3)C3CCCC3)cc2)n(C)c1=O (single isomer, unassigned) [Example 169]",,2,28,8.52,,"inhibition in vivo at 5 mg/kg ([3]; Rattus norvegicus, po, 2 h, 5 mg/kg p.o., read-out: Triton rat % TG inhibition (p.o.) 2 h after substance): 41%; inhibition in vivo at 10 mg/kg ([3]; Rattus norvegicus, po, 2 h, 10 mg/kg p.o., read-out: Triton rat % TG inhibition (p.o.) 2 h after substance): 59.4%"
"Cn1c(=O)c2c(nc(Cc3ccccc3)n2Cc2ccc(C(C(=O)N[C@@H](CO)c3ccccc3)C3CCCCCC3)cc2)n(C)c1=O (single isomer, unassigned) [Example 176]",,,,7.72,,"Triton rat % TG inhibition (p.o.) 2 h after substance ([3]; 3 mg/kg p.o., (n.s.) for 112, 114, 117, 154, 175, 176, 227): 6.2%"
"Cn1c(=O)c2c(nc(Cc3ccccc3)n2Cc2ccc(C(C(=O)N[C@@H](CO)c3ccccc3)C3CCCCCC3)cc2)n(C)c1=O (single isomer, unassigned) [Example 175]",7.49,,9.8,,,
"Cc1ccc(-c2nc3c(c(=O)n(C)c(=O)n3C)n2Cc2ccc(C(C(=O)N[C@@H](CO)c3ccccc3)C3CCCC3)cc2)cc1 (single isomer, unassigned) [Example 136]",,2,28,7.64,,
Cc1ccc(-c2nc3c(c(=O)n(C)c(=O)n3C)n2Cc2ccc(C(C(=O)N[C@@H](CO)c3ccccc3)C3CCCC3)cc2)cc1 (stereo partly shown) [Example 112],8.40,,17,,3,
